# Reference: patent US20230017786A1, “DEXTR[…] A DISEASE-MODIFYING TREATMENT FOR NEUROPSYCHIATRIC DISORDERS AND DISEASES” (priority 2020, published 2023)
# pKi: −log10 of the molar value.
# Experiments:
# [1] = molecular target: T1, human NMDA receptor GluN1-GluN2B (Homo sapiens, UniProt Q05586+Q13224); test: cell-based; format: cell-based
# T1 construct: expressed in transfected cells; host or cells: CHO
# [2] = molecular target: T2, recombinant human NMDAR GluN1 plus GluN2A (Homo sapiens, UniProt Q05586+Q12879); test: FLIPR calcium assay, gentamicin as PAM (Example 5 Part I), GluN2A cell line; format: cell-based; details: 10 μM test item; dextromethadone in presence and absence of 10 μM gentamicin
# T2 construct: expressed in transfected cells; host or cells: CHO
# From the text: (§1) A FLIPR calcium assay was used to profile gentamicin using stable cell lines expressing diheteromeric recombinant human NMDARs, containing GluN1 plus one amongst GluN2A, GluN2B, GluN2C or GluN2D subunit.
# [3] = molecular target: T3, recombinant human NMDAR GluN1 plus GluN2B (Homo sapiens, UniProt Q05586+Q13224); test: FLIPR calcium assay, gentamicin as PAM (Example 5 Part I), GluN2B cell line; format: cell-based; details: 10 μM test item; dextromethadone in presence and absence of 10 μM gentamicin
# T3 construct: expressed in transfected cells; host or cells: CHO
# From the text: as §1
# [4] = molecular target: T4, recombinant human NMDAR GluN1 plus GluN2C (Homo sapiens, UniProt Q05586+Q14957); test: FLIPR calcium assay, gentamicin as PAM (Example 5 Part I), GluN2C cell line; format: cell-based; details: 10 μM test item; dextromethadone in presence and absence of 10 μM gentamicin
# T4 construct: expressed in transfected cells; host or cells: CHO
# From the text: as §1
# [5] = molecular target: T1, human NMDA receptor GluN1-GluN2B; test: FLIPR calcium assay, quinolinic acid, gentamicin, dextromethadone (Example 5 Part II), GluN1-GluN2B-CHO; format: cell-based; details: 10 μM glycine; for calcium response (mean±SEM): GluN2B, n=42
# [6] = molecular target: T5, human NMDA receptor GluN1-GluN2D (Homo sapiens, UniProt O15399+Q05586); test: FLIPR calcium assay, quinolinic acid, gentamicin, dextromethadone (Example 5 Part II), GluN1-GluN2D-CHO; format: cell-based; details: 10 μM glycine; for calcium response (mean±SEM): GluN2D, n=42
# T5 construct: expressed in transfected cells; host or cells: CHO
# In short: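 CHO lines expressing diheteromeric human GluN1/GluN2A–D, loaded 1 h with Fluo-4, tested by FLIPR for intracellular calcium with 10 μM glycine present. Quinolinic acid, gentamicin and test items were run as concentration-response curves, alone or combined. EC50 obtained from a four-parameter Hill fit.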
# 5-HT2A receptor = 5-HT2A receptor (Homo sapiens, UniProt P28223); details: agonist; Rickli et al., 2018; cited from earlier work
# 5-HT2C receptor = molecular target: T6, 5-HT2C receptor (Homo sapiens, UniProt P28335); details: agonist; Rickli et al., 2018; cited from earlier work
# T6 sequence (P28335 33-458): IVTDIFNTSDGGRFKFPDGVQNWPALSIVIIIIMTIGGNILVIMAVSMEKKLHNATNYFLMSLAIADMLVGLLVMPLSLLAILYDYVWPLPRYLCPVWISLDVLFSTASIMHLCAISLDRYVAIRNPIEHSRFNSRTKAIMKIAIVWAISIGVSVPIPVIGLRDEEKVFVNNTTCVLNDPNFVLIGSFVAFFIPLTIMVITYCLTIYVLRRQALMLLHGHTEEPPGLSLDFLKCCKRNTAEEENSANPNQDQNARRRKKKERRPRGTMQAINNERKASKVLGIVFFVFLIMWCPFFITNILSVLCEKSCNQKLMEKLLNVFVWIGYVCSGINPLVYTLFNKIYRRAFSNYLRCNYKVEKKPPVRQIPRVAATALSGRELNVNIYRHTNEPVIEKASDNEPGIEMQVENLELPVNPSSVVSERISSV
# [7] = Phase 1 SAD and MAD studies, pharmacokinetics
# healthy subjects = test: Phase 1 SAD and MAD studies, safety and tolerability
# [8] = tested on: Western diet fed Sprague-Dawley rats, liver; test: Western diet treated rats, hepatic inflammation, steatosis and lipid metabolism genes; details: 10 mg/kg, gastric gavage, 15 days
# [9] = 0.04 μM L-Glu + 1000 μM QA + 10 μM DXT
# [10] = 0.2 μM L-Glu + 100 μM QA + 10 μM DXT
# [11] = 0.2 μM L-Glu + 1000 μM QA + 10 μM DXT
# [12] = 1000 μM QA + 10 μg/ml GENT + 10 μM DXT
# [13] = Table 41: 0.04 μM L-Glu + 10 μM DXT
# [14] = Table 43: 0.2 μM L-Glu + 10 μM DXT
# T4 sequence (Q14957 20-1233, other chains not shown): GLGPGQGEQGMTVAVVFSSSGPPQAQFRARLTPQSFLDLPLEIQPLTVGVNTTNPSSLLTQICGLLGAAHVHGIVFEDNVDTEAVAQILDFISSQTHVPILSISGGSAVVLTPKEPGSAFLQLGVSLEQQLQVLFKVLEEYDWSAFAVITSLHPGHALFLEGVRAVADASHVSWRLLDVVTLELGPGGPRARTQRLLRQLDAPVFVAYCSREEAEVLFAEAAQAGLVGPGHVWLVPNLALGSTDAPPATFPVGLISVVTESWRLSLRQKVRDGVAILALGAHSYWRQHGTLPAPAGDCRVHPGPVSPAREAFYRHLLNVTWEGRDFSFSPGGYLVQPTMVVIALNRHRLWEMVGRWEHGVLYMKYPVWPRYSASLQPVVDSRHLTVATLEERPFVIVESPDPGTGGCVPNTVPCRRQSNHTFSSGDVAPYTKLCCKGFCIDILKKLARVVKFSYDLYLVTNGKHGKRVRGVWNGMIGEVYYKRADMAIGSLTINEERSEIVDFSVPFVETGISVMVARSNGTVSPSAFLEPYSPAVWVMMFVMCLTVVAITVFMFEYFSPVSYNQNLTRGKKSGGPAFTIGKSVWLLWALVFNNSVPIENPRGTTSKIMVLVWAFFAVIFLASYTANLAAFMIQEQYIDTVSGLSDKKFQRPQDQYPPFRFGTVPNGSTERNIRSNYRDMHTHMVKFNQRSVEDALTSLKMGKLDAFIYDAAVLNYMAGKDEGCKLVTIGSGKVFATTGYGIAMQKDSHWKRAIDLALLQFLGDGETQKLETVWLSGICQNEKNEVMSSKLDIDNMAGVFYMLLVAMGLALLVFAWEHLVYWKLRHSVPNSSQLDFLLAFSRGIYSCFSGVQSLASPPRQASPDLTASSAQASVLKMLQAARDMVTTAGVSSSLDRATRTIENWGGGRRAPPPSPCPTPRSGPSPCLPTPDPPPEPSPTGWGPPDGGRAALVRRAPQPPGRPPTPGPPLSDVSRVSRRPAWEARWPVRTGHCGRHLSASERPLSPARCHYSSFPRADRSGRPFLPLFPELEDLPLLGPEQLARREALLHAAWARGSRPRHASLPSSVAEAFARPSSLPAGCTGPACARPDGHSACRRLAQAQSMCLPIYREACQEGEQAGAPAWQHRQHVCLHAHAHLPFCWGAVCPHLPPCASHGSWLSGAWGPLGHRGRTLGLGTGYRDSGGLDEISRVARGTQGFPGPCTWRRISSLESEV
# T1 sequence (Q13224 27-1484, other chains not shown): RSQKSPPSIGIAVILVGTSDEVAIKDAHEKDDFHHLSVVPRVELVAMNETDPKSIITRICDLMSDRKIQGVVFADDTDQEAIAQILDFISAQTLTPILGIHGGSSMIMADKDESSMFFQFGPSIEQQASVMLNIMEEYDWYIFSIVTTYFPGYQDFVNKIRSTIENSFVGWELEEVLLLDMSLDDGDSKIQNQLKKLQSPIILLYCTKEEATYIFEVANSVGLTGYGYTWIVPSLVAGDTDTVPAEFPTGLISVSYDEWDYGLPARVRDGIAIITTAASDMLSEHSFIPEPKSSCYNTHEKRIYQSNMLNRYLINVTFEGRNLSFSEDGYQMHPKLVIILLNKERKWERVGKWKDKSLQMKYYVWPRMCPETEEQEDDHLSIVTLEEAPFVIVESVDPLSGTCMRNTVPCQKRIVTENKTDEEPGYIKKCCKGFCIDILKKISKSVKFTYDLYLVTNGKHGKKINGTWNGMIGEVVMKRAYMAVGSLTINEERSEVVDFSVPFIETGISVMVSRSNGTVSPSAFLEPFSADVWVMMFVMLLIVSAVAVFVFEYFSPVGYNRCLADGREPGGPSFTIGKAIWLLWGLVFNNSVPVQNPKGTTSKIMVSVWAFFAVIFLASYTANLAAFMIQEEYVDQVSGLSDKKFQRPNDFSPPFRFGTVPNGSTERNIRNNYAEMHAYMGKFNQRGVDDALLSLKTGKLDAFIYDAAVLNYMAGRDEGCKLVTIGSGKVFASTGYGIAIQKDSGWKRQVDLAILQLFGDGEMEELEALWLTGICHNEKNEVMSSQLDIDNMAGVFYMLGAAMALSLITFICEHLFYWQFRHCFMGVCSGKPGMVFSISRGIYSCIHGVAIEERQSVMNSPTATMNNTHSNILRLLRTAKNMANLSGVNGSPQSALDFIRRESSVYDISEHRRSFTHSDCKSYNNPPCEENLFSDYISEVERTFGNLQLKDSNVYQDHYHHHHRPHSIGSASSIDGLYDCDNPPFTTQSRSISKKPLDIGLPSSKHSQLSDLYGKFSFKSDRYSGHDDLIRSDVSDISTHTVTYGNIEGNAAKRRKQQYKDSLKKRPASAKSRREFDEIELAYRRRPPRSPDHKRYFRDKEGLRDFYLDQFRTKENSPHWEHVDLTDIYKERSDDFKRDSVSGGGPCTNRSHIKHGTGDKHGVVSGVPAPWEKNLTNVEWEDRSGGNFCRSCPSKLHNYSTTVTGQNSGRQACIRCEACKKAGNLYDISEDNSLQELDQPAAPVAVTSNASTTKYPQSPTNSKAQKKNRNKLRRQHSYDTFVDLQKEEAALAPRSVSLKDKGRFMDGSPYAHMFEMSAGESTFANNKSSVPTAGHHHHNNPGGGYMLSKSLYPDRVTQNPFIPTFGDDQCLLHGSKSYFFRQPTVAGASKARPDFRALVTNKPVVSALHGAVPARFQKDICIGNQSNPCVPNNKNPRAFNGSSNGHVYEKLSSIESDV
# T3 sequence (Q13224 27-1484, other chains not shown): as above
# Sequence of 5-HT2A receptor (P28223 whole entry): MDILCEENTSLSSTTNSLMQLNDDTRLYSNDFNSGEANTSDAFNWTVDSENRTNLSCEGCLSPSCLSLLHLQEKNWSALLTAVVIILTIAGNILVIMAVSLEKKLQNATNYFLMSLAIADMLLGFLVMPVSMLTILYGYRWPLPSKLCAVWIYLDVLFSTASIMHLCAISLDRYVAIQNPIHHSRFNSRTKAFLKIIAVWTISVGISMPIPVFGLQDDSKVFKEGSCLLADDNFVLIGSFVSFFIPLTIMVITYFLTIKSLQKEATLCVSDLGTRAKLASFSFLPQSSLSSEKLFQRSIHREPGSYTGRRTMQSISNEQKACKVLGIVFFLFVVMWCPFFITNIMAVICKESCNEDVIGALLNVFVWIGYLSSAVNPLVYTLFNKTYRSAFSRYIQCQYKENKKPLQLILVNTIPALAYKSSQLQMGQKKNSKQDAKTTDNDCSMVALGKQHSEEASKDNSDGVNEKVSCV
structure (smiles),measurement,setting,value
"CCC(=O)C(C[C@H](C)N(C)C)(c1ccccc1)c1ccccc1 [Dextromethadone, dextromethadone]","α, estimated cooperativity term",[1]; operational analysis for allosteric modulators,0.26
same,L-glutamate CRC HillSlope,[1]; with test item 49 nM,1.2
same,L-glutamate CRC LogEC50,[1]; with test item 49 nM,−7.0
same,L-glutamate CRC HillSlope,[1]; with test item 195 nM,1.2
same,L-glutamate CRC LogEC50,[1]; with test item 195 nM,−6.9
same,L-glutamate CRC HillSlope,[1]; with test item 781 nM,1.2
same,L-glutamate CRC LogEC50,[1]; with test item 781 nM,−6.9
same,L-glutamate CRC HillSlope,[1]; with test item 3.1 μM,1.1
same,L-glutamate CRC LogEC50,[1]; with test item 3.1 μM,−6.9
same,L-glutamate CRC HillSlope,[1]; with test item 12.5 μM,1.3
same,L-glutamate CRC LogEC50,[1]; with test item 12.5 μM,−6.7
same,L-glutamate CRC HillSlope,[1]; with test item 50 μM,1.1
same,L-glutamate CRC LogEC50,[1]; with test item 50 μM,−6.4
same,calcium entry induced by 0.04 μM L-glutamate,[2],significantly reduced
same,calcium entry induced by 0.2 μM L-glutamate,[2],significantly reduced
same,calcium entry induced by 10 μM L-glutamate,[2],significantly reduced
same,calcium entry induced by 0.04 μM L-glutamate,[3],significantly reduced
same,calcium entry induced by 0.2 μM L-glutamate,[3],significantly reduced
same,calcium entry induced by 10 μM L-glutamate,[3],significantly reduced
same,calcium entry induced by 0.04 μM L-glutamate,[4],significantly reduced
same,calcium entry induced by 0.2 μM L-glutamate,[4],significantly reduced
same,calcium entry induced by 10 μM L-glutamate,[4],significantly reduced
same,calcium response (mean±SEM),[5]; 0.04 μM L-Glu + 10 μM DXT,0.2 ± 0.4
same,calcium response (mean±SEM),[5]; [9],13 ± 1.0
same,calcium response (mean±SEM),[5]; 0.2 μM L-Glu + 10 μM DXT,8.0 ± 0.5
same,calcium response (mean±SEM),[5]; [10],9.9 ± 0.8
same,calcium response (mean±SEM),[5]; [11],13 ± 1.0
same,"% effect on calcium entry, 100 QA + 10 DXT",[5]; 100 μM QA + 10 μM DXT,−1.0 ± 0.8%
same,calcium response (mean±SEM),[5]; 1000 μM QA + 10 μM DXT,12 ± 0.7
same,"% effect on calcium entry, 1000 QA + 10 DXT",[5]; 1000 μM QA + 10 μM DXT,12 ± 0.7%
same,calcium response (mean±SEM),[5]; [12],21 ± 0.9
same,calcium response (mean±SEM),[5]; [13],0.2 ± 0.4
same,calcium response (mean±SEM),[5]; [14],8.0 ± 0.5
same,calcium response (mean±SEM),[6]; 0.04 μM L-Glu + 10 μM DXT,3.5 ± 0.2
same,calcium response (mean±SEM),[6]; 0.04 μM L-Glu + 100 μM QA + 10 μM DXT,7.1 ± 0.4
same,calcium response (mean±SEM),[6]; [9],33 ± 1.6
same,calcium response (mean±SEM),[6]; 0.2 μM L-Glu + 10 μM DXT,71 ± 2.3
same,calcium response (mean±SEM),[6]; [10],69 ± 1.4
same,calcium response (mean±SEM),[6]; [11],43 ± 1.1
same,"% effect on calcium entry, 100 QA + 10 DXT",[6]; 100 μM QA + 10 μM DXT,−2.4 ± 0.2%
same,calcium response (mean±SEM),[6]; 1000 μM QA + 10 μM DXT,32 ± 0.9
same,"% effect on calcium entry, 1000 QA + 10 DXT",[6]; 1000 μM QA + 10 μM DXT,32 ± 0.9%
same,calcium response (mean±SEM),[6]; [12],36 ± 0.8
same,calcium response (mean±SEM),[6]; [13],3.5 ± 0.2
same,calcium response (mean±SEM),[6]; [14],71 ± 2.3
same,pKi,5-HT2A receptor,6.28
same,pKi,5-HT2C receptor,5.72
same,conversion of dextromethadone to levomethadone in vivo,[7]; SAD and MAD subjects,No detectable conversion
same,pharmacokinetic linearity,"[7]; SAD and MAD, racially diversified subjects",linear pharmacokinetics with dose proportionality
same,QTcF changes from base-line,healthy subjects; SAD and MAD,none of the changes were considered clinically significant
same,"respiratory depression, dissociative and psychotomimetic effects, withdrawal signs and symptoms","healthy subjects; SAD and MAD, abrupt discontinuation",no evidence
same,tolerability,healthy subjects; single doses up to 150 mg and daily doses up to 75 mg for 10 days,well tolerated
same,CCL2 gene expression in liver (qRT-PCR),[8],didn't affect significantly this increase
same,GPAT4 gene expression in liver (qRT-PCR),[8],significant drop of their expression
same,IL-6 gene expression in liver (qRT-PCR),[8],able to counteract this effect
same,IL-10 gene expression in liver (qRT-PCR),[8],able to counteract this effect
same,SREPB2 gene expression in liver (qRT-PCR),[8],significant drop of their expression
same,"hepatic steatosis, histology",[8],reduction of steatosis
